The test system of one assay is Staphylococcus aureus. Kind of assay: Antimicrobial activity against Staphylococcus aureus 209 assessed as reduction in microbial growth up to 70 uM after 24 hrs. It is filed as functional, organism-based. Conditions: dose microM <=70, time 24.0 hrs.
The next assay has as its system HL-60. Kind of assay: Cytotoxicity against human HL-60 cells assessed as reduction in cell viability up to 70 uM after 48 hrs by WST-8 assay. In kind it is functional, cell-based. Conditions: dose microM <=70, time 48.0 hrs.
In a further assay the test system is Candida albicans. Briefly: Antimicrobial activity against Candida albicans JCM1542 assessed as reduction in microbial growth up to 70 uM after 48 hrs. In kind it is functional, organism-based. The note with it: dose microM <=70, time 48.0 hrs.
A further assay relates to HeLa. Briefly: Cytotoxicity against human HeLa cells assessed as reduction in cell viability up to 70 uM after 48 hrs by WST-8 assay. It is filed as functional, cell-based. Conditions: dose microM <=70, time 48.0 hrs. A general note: Tetrazolium dyes change colour on reduction, which living cells bring about.
The subject of another assay is Escherichia coli. Briefly: Antimicrobial activity against Escherichia coli HO141 assessed as reduction in microbial growth up to 70 uM after 24 hrs. It is filed as functional, organism-based. Conditions: dose microM <=70, time 24.0 hrs.
A further assay concerns NRK. Briefly: Cytotoxicity against rat NRK cells infected with ts25 T-class mutant of Rous sarcoma virus Prague strain assessed as reduction in cell viability up to 70 uM after 48 hrs by WST-8 assay. In kind it is functional, cell-based. The note with it: dose microM <=70, time 48.0 hrs.
Another assay has as its system Aspergillus fumigatus. Briefly: Antimicrobial activity against Aspergillus fumigatus Af293 assessed as reduction in microbial growth up to 70 uM after 48 hrs. In kind it is functional, organism-based. Conditions: dose microM <=70, time 48.0 hrs.
The subject of another assay is Pyricularia oryzae. Kind of assay: Antimicrobial activity against Pyricularia oryzae kita-1 assessed as reduction in microbial growth up to 70 uM after 48 hrs. It is filed as functional, organism-based. The note with it: dose microM <=70, time 48.0 hrs.
The test system of a further assay is Plasmodium falciparum. Kind of assay: Antimalarial activity against Plasmodium falciparum 3D7. It is filed as functional, organism-based.

Calls of active or inactive are those of the source. The rule behind the calls is not given here.

As a reminder, the IC50 is the point on the concentration scale where inhibition reaches its midpoint.

On to `C\C1=C/C=C\C=C\[C@H](C)CNC(=O)CC(=O)C[C@@H]2O[C@H]3[C@@H]4[C@@H](C=C[C@H]1[C@H]42)[C@@H](O)C[C@H]3O`, for which the result in the assay on Staphylococcus aureus, in the assay on HL-60, with Candida albicans, in the assay with HeLa, with Escherichia coli and in the assay with NRK was inactive. Further, the result with Aspergillus fumigatus and in the assay with Pyricularia oryzae was inactive. Half-maximal inhibition with Plasmodium falciparum (IC50) required 12 µM.
